Results reported in patent publication US20230105212A1, “BIPHENYL DERIVATIVE INHIBITOR, PREPARATION METHOD THEREFOR AND USE THEREOF” (SHANGHAI HANSOH BIOMEDICAL CO., LTD., priority 2020, published 2023).

Key:
human PD-L1 protein = biological target: T1, human PD-L1 protein (Homo sapiens, UniProt Q9NZQ7); assay: Thermal shift: melting temperature of PD-L1 protein; type: binding; settings: compound 10 μM, PD-L1 protein 2 μM, Tm minus DMSO vehicle control; read-out: ΔTm (° C.)
T1 construct: purchased Acro Biosystems PD1-H5229
In short: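 Human PD-L1 at 2 μM final was tested in […], 150 mM NaCl with SYPRO Orange, heated 25→95 °C at 0.03 °C/s in a PCR melt-curve run. Tm was taken per treatment; ΔTm is the shift relative to DMSO vehicle.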

human PD-1/PD-L1 binding = biological target: T2, human PD-1/PD-L1 binding (Homo sapiens, UniProt Q9NZQ7); assay: Inhibition of human PD-1/PD-L1 binding (TR-FRET/HTRF); settings: TR-FRET, PD-L1-His and PD-1-Fc; read-out: PD-1/PD-L1 binding IC50
T2 construct: PD-L1-His protein (19 to 238 amino acids) (Abcam #ab167713); purchased Abcam (PD-L1-His); R&D (PD-1-Fc) ab167713; 1086-PD
In short: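 PD-L1-His (aa 19–238, diluted to 10 nM) and PD-1-Fc (aa 25–167, diluted to 20 nM) incubated with compounds (10 μM or 1 μM top, 3-fold, 11 doses) 60 min at room temperature, then anti-6HIS Eu cryptate/anti-human IgG-XL665 added for 3 h RT or overnight 4 °C. HTRF 665/620 nm ratio gave inhibition and IC50.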

MC38-hPDL1 cells = assay: In vitro cytotoxicity on MC38-hPDL1 cells (CellTiter-Glo); type: cell-based, mouse; settings: for MC38-hPDL1 inhibition rate (%): 72 hours; for IC50: Mus musculus, MC38-hPD-L1, 72 hours
Procedure: (§1) Test Embodiment 5. In Vitro Cytotoxicity of the Compounds of the Present Disclosure on NFAT-Luc2/PD1 Jurkat Cells and MC38-hPDL1 Cells
(§2) Experimental purpose: To test the in vitro cytotoxicity of compounds on NFAT-luc2/PD1 Jurkat cells and MC38-hPDL1 cells.
(§3) When the cells were cultured to an appropriate degree of confluency, the cells were collected, and the cells was adjusted in an appropriate cell concentration by complete medium, then the cell suspension was plated in a 96-well plate, 90 μL per well, and put in a 37° C., 5% CO2 incubator overnight; compound solutions of different concentrations were prepared by DMSO and medium, and a vehicle control was set; compound solutions were added to a 96-well plate, 10 μL per well, and put in a 37° C., 5% CO2 incubator and cultured for 72 hours. After that, CellTiter-Glo solution was added, the mixture was shaken and mixed evenly, incubated in the dark for 10 minutes, and a BioTek Synergy H1 microplate reader was used for reading.
(§4) Luminescence signal value was used to calculate the inhibition rate, and the concentration and inhibition rate were fitted by nonlinear regression curve using Graphpad Prism software to obtain IC50 values, as shown in the following table: […]

[1] = test system: NFAT-luc2/PD1 Jurkat cells; assay: In vitro cytotoxicity on NFAT-luc2/PD1 Jurkat cells (CellTiter-Glo); type: cell-based; settings: 72 hours; for IC50: Homo sapiens, Jurkat
Procedure: as §1, §2, §3, §4

[2] = biological target: T3, PD-L1 protein on the surface of MC38-hPDL1 tumor cells (Homo sapiens, UniProt Q9NZQ7); assay: Induction of endocytosis of PD-L1 on the surface of tumor cells (flow cytometry); type: cell-based; settings: 16 hours incubation; for Emax: MC38-hPDL1 cells, read-out: MC38 maximum endocytosis rate; for IC50: inducing endocytosis of PD-L1, MC38-hPDL1 cells, read-out: MC38 IC50
T3 construct: expressed in transfected cells; host or cells: MC38-hPDL1 (mouse colon cancer cells)
In short: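 IC50 comes from nonlinear fits of endocytosis rate, calculated from the loss of surface PE-anti-CD274 flow signal relative to vehicle. Cells were MC38 mouse colon cancer cells engineered to express high human PD-L1. Compound exposure lasted 16 h at 37 °C, 5% CO2.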

[3] = test system: CHO-PDL1/Jurkat-PD1 cell pathway; assay: Inhibition of CHO-PDL1/Jurkat-PD1 cell pathway (NFAT luciferase reporter); type: cell-based; settings: for EC50: 6 hours incubation, luciferase signal; for maximal fold induction: relative to the signal value of the non-dosed group, read-out: Maximum induction fold
Procedure: Test Embodiment 3. Inhibitory Effect of the Compounds of the Present Disclosure on CHO-PDL1/Jurkat-PD1 Cell Pathway
Experimental purpose: The purpose of this test embodiment was to test the inhibitory effect of compounds on the CHO-PDL1/Jurkat-PD1 cell pathway.
Experimental method: Two stably transfected cell lines were included in this experiment, CHO-K1 cells stably transfected with PD-L1 and Jurkat cells stably transfected with PD-1 and NFAT luciferase reporter genes. Compounds were incubated with the two cell lines. Then, due to the inhibitory effect on the PD-1/PD-L1 pathway, the activation degree of Jurkat cells changed, so that the level of the reporter gene NFAT in the downstream of Jurkat cells changed, and the level of NFAT was characterized by detecting the signal value of luciferase, so that the inhibitory effect of the test compound on CHO-PDL1/Jurkat-PD1 pathway was characterized.
CHO-PDL1 cells (Promega, #J1252) were cultured to a suitable cell density. After digestion, the cells were resuspended by complete medium to become a suitable density of cell suspension. The cell suspension was plated 100 μL per well on a 96-well plate (Corning, #3610), and placed in a 37° C., 5% CO2 incubator and incubated overnight, and assay medium (RPMI 1640+2% FBS, RPMI 1640 Cat. No.: Gibco, #22400089, FBS Cat. No.: Gibco, #10091148) was used to prepare compound solutions of different concentrations. NFAT-luc2/PD1 Jurkat cells (Promega, #J1252) were collected and resuspended to the appropriate cell density using assay medium. The supernatant of the CHO-PDL1 cell culture plate was aspirated, and 40 μL of the prepared compound solution and 40 μL of resuspended NFAT-luc2/PD1 Jurkat cells were added, and incubated in a 5% CO2 incubator at 37° C. for 6 hours, and the cell plate was taken out, then 40 μL of One-Glo reagent (Promega, #E6120) was added to each well, shaked and mixed well, incubated in the dark at room temperature for 10 minutes, then put into a microplate reader and the luminescence program was used to read the luminescence value of the cell plate.
The EC50 value was fitted according to the compound concentration and the luminescence signal value, and the maximum induction fold of each compound relative to the signal value of the non-dosed group was calculated, as shown in Table 3.

T3 sequence (Q9NZQ7 19-290): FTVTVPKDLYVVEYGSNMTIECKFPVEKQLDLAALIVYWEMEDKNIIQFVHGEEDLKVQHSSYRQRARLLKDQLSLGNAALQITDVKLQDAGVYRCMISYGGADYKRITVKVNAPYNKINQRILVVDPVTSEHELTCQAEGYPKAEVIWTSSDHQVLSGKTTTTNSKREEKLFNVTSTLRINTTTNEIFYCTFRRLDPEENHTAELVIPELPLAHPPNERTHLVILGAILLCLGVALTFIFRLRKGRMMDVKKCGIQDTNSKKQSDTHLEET
T1 sequence (Q9NZQ7 19-238 limits assumed): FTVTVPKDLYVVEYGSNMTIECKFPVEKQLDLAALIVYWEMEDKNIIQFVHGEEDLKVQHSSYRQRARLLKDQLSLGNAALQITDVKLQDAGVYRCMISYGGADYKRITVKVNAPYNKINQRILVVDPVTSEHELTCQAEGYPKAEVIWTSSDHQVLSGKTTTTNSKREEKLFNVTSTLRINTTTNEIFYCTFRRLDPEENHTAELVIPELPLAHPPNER
T2 sequence (Q9NZQ7 19-238): as the sequence (Q9NZQ7 19-238 limits assumed) above

Row | Structure (SMILES) | ΔTm at 10 µM (human PD-L1 protein) | IC50 (human PD-1/PD-L1 binding) | MC38-hPDL1 inhibition rate (%) (MC38-hPDL1 cells) | IC50 (MC38-hPDL1 cells) | Jurkat-PD1 inhibition rate (%) [1] | IC50 [1] | Emax [2] | IC50 [2] | EC50 [3] | maximal fold induction [3]
1 | COc1cc(C(=O)Nc2cccc(-c3cccc(NC(=O)c4nc5c(n4C)CCN(C)C5)c3Cl)c2C)ncc1CNC1(C(=O)O)COC1 [Embodiment 102, 3-(((6-((2′-Chloro-3′-(1,5-dimethyl-4,5,6,7-tetrahydro-1H-imidazo[4,5-c]pyridine-2-carboxamido)-2-methyl-[1,1′-biphenyl]-3-yl)carbamoyl)-4-methoxypyridin-3-yl)methyl)amino)oxetane-3-carboxylic Acid] | 10.8 °C | 1 nM | −6.7%^ | > 10000 nM | −12.0% ^ | > 10000 nM | – | – | – | –
2 | COc1nc(-c2cccc(-c3cccc(NC(=O)c4nc5c(n4C)CCN(C)C5)c3Cl)c2C)ccc1CNC1COC1 [Embodiment 112, N-(2-Chloro-3′-(6-methoxy-5-((oxetan-3-ylamino)methyl)pyridin-2-yl)-2′-methyl-[1,1′-biphenyl]-3-yl)-1,5-dimethyl-4,5,6,7-tetrahydro-1H-imidazo[4,5-c]pyridine-2-carboxamide] | 12 °C | 9.4 nM | 13.0%^ | > 10000 nM | 57.0%^ | 8630 nM | 87% | 11 nM | – | –
3 | COc1nc(-c2cccc(-c3cccc(NC(=O)c4nc5c(n4C)CCN(C)C5)c3Cl)c2Cl)ccc1CN1CC(CO)C1 [Embodiment 215, N-(2,2′-Dichloro-3′-(5-((3-(hydroxymethyl)azetidin-1-yl)methyl)-6-methoxypyridin-2-yl)-[1,1′-biphenyl]-3-yl)-1,5-dimethyl-4,5,6,7-tetrahydro-1H-imidazo[4,5-c]pyridine-2-carboxamide] | 17.3 °C | 5 nM | 51% | 9340 nM | 85% | 4320 nM | 96% | – | – | –
4 | COc1nc(-c2cccc(-c3cccc(NC(=O)c4nc5c(n4C)CCN(C)C5)c3Cl)c2Cl)cnc1CN1CC(F)C1 [Embodiment 217, N-(2,2′-Dichloro-3′-(5-((3-fluoroazetidin-1-yl)methyl)-6-methoxypyrazin-2-yl)-[1,1′-biphenyl]-3-yl)-1,5-dimethyl-4,5,6,7-tetrahydro-1H-imidazo[4,5-c]pyridine-2-carboxamide] | 13 °C | – | 67% | 7150 nM | 79% | 5370 nM | 96% | 1.4 nM | – | –
5 | COc1nc(-c2cccc(-c3cccc(NC(=O)c4nc5c(n4C)CCN(C)C5)c3Cl)c2Cl)ncc1CN1CC(NC(C)=O)C1 [Embodiment 224, N-(3′-(5-((3-Acetylaminoazetidin-1-yl)methyl)-4-methoxypyrimidin-2-yl)-2,2′-dichloro-[1,1′-biphenyl]-3-yl)-1,5-dimethyl-4,5,6,7-tetrahydro-1H-imidazo[4,5-c]pyridine-2-carboxamide] | 11.3 °C | 4 nM | 1% | > 10000 nM | 48% | 9500 nM | 90% | – | – | –
6 | COc1nc(-c2cccc(-c3cccc(NC(=O)c4nc5c(n4C)CCN(C)C5)c3Cl)c2Cl)ncc1CN1CC2(C1)CN(C(C)=O)C2 [Embodiment 222, N-(3′-(5-((6-Acetyl-2,6-diazaspiro[3.3]heptan-2-yl)methyl)-4-methoxypyrimidin-2-yl)-2,2′-dichloro-[1,1′-biphenyl]-3-yl)-1,5-dimethyl-4,5,6,7-tetrahydro-1H-imidazo[4,5-c]pyridine-2-carboxamide] | – | 5.2 nM | 0% | > 10000 nM | 36% | > 10000 nM | 92% | – | – | –
7 | COc1cc(C(=O)Nc2cccc(-c3cccc(NC(=O)c4nc5c(n4C)CCN(C)C5)c3Cl)c2C)ncc1CNc1ccnc(C)n1 [Embodiment 90, N-(2-Chloro-3′-(4-methoxy-5-(((2-methylpyrimidin-4-yl)amino)methyl)picolinamido)-2′-methyl-[1,1′-biphenyl]-3-yl)-1,5-dimethyl-4,5,6,7-tetrahydro-1H-imidazo[4,5-c]pyridine-2-carboxamide] | 11 °C | – | 6.8% | > 10000 nM | 99.0%^ | 1400 nM | 80% | 9.9 nM | 99 nM | 3.2
8 | COc1cc(-c2cccc(-c3cccc(NC(=O)c4nc5c(n4C)CCN(C)C5)c3Cl)c2Cl)ccc1CNCC(=O)O [Embodiment 159, ((2′,2″-Dichloro-3″-(1,5-dimethyl-4,5,6,7-tetrahydro-1H-imidazo[4,5-c]pyridine-2-carboxamido)-3-methoxy-[1,1′:3′,1″-terphenyl]-4-yl)methyl)glycine] | – | 2.2 nM | 5% | > 10000 nM | 24% | > 10000 nM | – | – | 45 nM | 3.2
9 | COc1cc(C(=O)Nc2cccc(-c3cccc(NC(=O)c4nc5c(n4C)CCN(C)C5)c3Cl)c2C)ncc1CN[C@@H]1CCOC[C@@H]1F [Embodiment 30, N-(2-Chloro-3′-(5-((((3R,4R)-3-fluorotetrahydro-2H-pyran-4-yl)amino)methyl)-4-methoxypicolinamido)-2′-methyl-[1,1′-biphenyl]-3-yl)-1,5-dimethyl-4,5,6,7-tetrahydro-1H-imidazo[4,5-c]pyridine-2-carboxamide] | 11.2 °C | 5.7 nM | 4.0% | > 10000 nM | 99.0%^ | 2950 nM | 94% | 3.7 nM | – | –
